One data set in a line: in vivo. To be noted: mouse, in vivo, po. The method, then:
Tests were carried out on mice of both sexes, of the Swiss strain, of average weight 20 g. (± 2g.).

In data set [1] the test system is pain induced, in Swiss mice, by the intraperitoneal injection of phenylquinone. Description: Siegmund test (analgesic effect against pain induced by intraperitoneal phenylquinone). It is filed as in vivo. The conditions noted are these: mice; for ED50: Mus musculus, oral administration, read-out: Siegmund test AD50 (50% active dose); for analgesic effects of the peripheral type (Siegmund test), compared with amidopyrine and glafenine: oral, versus amidopyrine and glafenine. An excerpt: 1. Effect against pain induced, in Swiss mice, by the intraperitoneal injection of phenylquinone, in accordance with the experimental procedure of Siegmund (Proc. Soc. Exp. Biol. Med., 1957, 95, 729), modified by Cheymol (C.R. Soc. Biol., 1963, 157, 521) and Brittain (Nature, London, 1963, […], 895).

Data set [2] has as its system carragenine-induced oedema of the paw, Sherman rats. Description: Carragenine-induced oedema test (oedema of the paw). It is filed as in vivo. To be noted: Rattus norvegicus; rats, oral administration; read-out: Carragenine-induced oedema test AD (AD40 = 40% active dose).
For data set [3], the system named is heated plate test, Swiss mice. Description: Heated plate test (plate heated by acetone vapours; analgesic effects of the central type). To be noted: oral, versus amidopyrine.

Each structure is given as a SMILES string.

For orientation: LD50 means the dose at which mortality reaches 50%. The low end stands for greater toxicity, the high end for lower toxicity. Compound `O=C(OCCN1CCN(c2cccc(SC(F)(F)F)c2)CC1)c1ccccc1Nc1ccnc2cc(Cl)ccc12` [Compound 73-031, 2-(4'-m-Trifluoromethylthiophenyl-piperazino)-ethyl 2-(7'-chloro-4'-quinolyl-amino)-benzoate] displayed an LD50 in the data set “in vivo” of 3000 mg/kg. In addition, the ED50 in data set [1] is 100 mg/kg. Besides, the ED40 in data set [2] was determined as 30 mg/kg.
For the compound `O=C(OCCN1CCN(c2cccc(C(F)(F)F)c2)CC1)c1ccccc1Nc1ccnc2c(C(F)(F)F)cccc12` [SLB 179, 2-(4'-m-Trifluoromethylphenyl-piperazino)-ethyl 2-(8'-trifluoromethyl-4'-quinolyl-amino)-benzoate], in the data set “in vivo”, the LD50 is > 3000 mg/kg. Further, in data set [1], the ED50 turned out to be 25 mg/kg; the “analgesic effects of the peripheral type (Siegmund test), compared with amidopyrine and glafenine” value is “generally much more active”. Moreover, in data set [2], the ED40 is 120 mg/kg. The “analgesic effects of the central type (heated plate test), compared with amidopyrine” value in data set [3] was “greater than that of amidopyrine”.
As for `O=C(OCCN1CCN(c2ccc(Cl)cc2)CC1)c1ccccc1Nc1ccnc2cc(Cl)ccc12` [Compound 72-165, 2-(4'-p-Chlorophenyl-piperazino)-ethyl 2-(7'-chloro-4' quinolyl-amino)-benzoate], in “in vivo”, the LD50 is > 2000 mg/kg. For the same compound, the ED50 in data set [1] is 50 mg/kg.
As to `O=C(OCCN1CCN(c2cccc(OC(F)(F)F)c2)CC1)c1ccccc1Nc1ccnc2cc(C(F)(F)F)ccc12` [Compound 73-051, 2-(4'-m-trifluoromethoxyphenyl-piperazino)-ethyl 2-(7'-trifluoromethyl-4'-quinolyl-amino)-benzoate], in the data set “in vivo”, the LD50 was > 4000 mg/kg. Further, in data set [1], the ED50 is 16 mg/kg; the “analgesic effects of the peripheral type (Siegmund test), compared with amidopyrine and glafenine” value is reported as “generally much more active”. Also, in data set [2], the ED40 was found to be 50 mg/kg.
Compound `O=C(OCCN1CCN(c2cccc(Cl)c2)CC1)c1ccccc1Nc1ccnc2cc(Cl)ccc12` [Compound 73-018, 2-(4'-m-Chlorophenyl-piperazino)-ethyl 2-(7'-chloro-4'-quinolyl-amino)-benzoate] came in with an LD50 in “in vivo” of 4000 mg/kg. In addition, in data set [1], the ED50 was 6 mg/kg; the “analgesic effects of the peripheral type (Siegmund test), compared with amidopyrine and glafenine” value is listed as “generally much more active”. For the same compound, the ED40 in data set [2] was found to be 120 mg/kg. Moreover, in data set [3], the “analgesic effects of the central type (heated plate test), compared with amidopyrine” value is listed as “greater than that of amidopyrine” and the “extent of the greater activity than amidopyrine in the heated plate test” value is “considerable”.
For `O=C(OCCN1CCN(c2cccc(SC(F)(F)F)c2)CC1)c1ccccc1Nc1ccnc2c(C(F)(F)F)cccc12` [SLB 182, 2-(4'-m-Trifluoromethylthiophenyl-piperazino)-ethyl 2-(8'-trifluoromethyl-4'-quinolyl-amino)-benzoate], in the data set “in vivo”, the LD50 is > 3000 mg/kg. Moreover, in data set [1], the ED50 was 5 mg/kg; the “analgesic effects of the peripheral type (Siegmund test), compared with amidopyrine and glafenine” value was “generally much more active”. The ED40 in data set [2] turned out to be 150 mg/kg.
For the compound `O=C(OCCN1CCN(c2cc(C(F)(F)F)cc(C(F)(F)F)c2)CC1)c1ccccc1Nc1ccnc2cc(C(F)(F)F)ccc12` [Compound 73-070, 2-[4'-(3",5"-Di-trifluoromethyl-phenyl)-piperazino]-ethyl 2-(7'-trifluoromethyl-4'-quinolyl-amino)-benzoate], in the data set “in vivo”, the LD50 is > 4000 mg/kg. For the same compound, in data set [1], the ED50 came out at 16 mg/kg. The ED40 in data set [2] was > 80 mg/kg.
Regarding `O=C(OCCN1CCN(c2ccccc2)CC1)c1ccccc1Nc1ccnc2cc(C(F)(F)F)ccc12` [Compound 72-242, 2-(4'-Phenyl-piperazino)-ethyl 2-(7'-trifluoro-methyl-4'quinolyl-amino)-benzoate], the LD50 in the data set “in vivo” is > 3000 mg/kg. In data set [1], the ED50 is 25 mg/kg; the “analgesic effects of the peripheral type (Siegmund test), compared with amidopyrine and glafenine” value is on record as “generally much more active”. Besides, in data set [2], the ED40 came to 40 mg/kg.
Compound `Cc1cccc(N2CCN(CCOC(=O)c3ccccc3Nc3ccnc4cc(Cl)ccc34)CC2)c1C` [Compound 72-248, 2-[4'-(2",3"-Dimethyl-phenyl)-piperazino]-ethyl 2-(7'-chloro-4'-quinolyl-amino)-benzoate] registered an LD50 in “in vivo” of 1900 mg/kg. Moreover, in data set [1], the ED50 worked out at 20 mg/kg; the “analgesic effects of the peripheral type (Siegmund test), compared with amidopyrine and glafenine” value is given as “generally much more active”. Moreover, the ED40 in data set [2] is 120 mg/kg.
The matching figures for `O=C(OCCN1CCN(c2ccccc2)CC1)c1ccccc1Nc1ccnc2c(C(F)(F)F)cccc12` [SLB 181, 2-(4'-Phenyl-piperazino)-ethyl 2-(8'-trifluoromethyl-4'-quinolyl-amino)-benzoate]: 2000 mg/kg, 12 mg/kg, “generally much more active” and 45 mg/kg.
As for `CCCCC1C(=O)N(c2ccccc2)N(c2ccccc2)C1=O` [Phenylbutazone, reference compound], the ED50 in data set [1] is 90 mg/kg. In addition, the ED40 in data set [2] came to 30 mg/kg.
In “in vivo”, `Cc1c(Cl)cccc1N1CCN(CCOC(=O)c2ccccc2Nc2ccnc3cc(C(F)(F)F)ccc23)CC1` [Compound 73-047, 2-[4'-(3"-Chloro-2"-methyl-phenyl)-piperazino]-ethyl 2-(7'-trifluoromethyl-4'-quinolyl-amino)-benzoate] showed an LD50 of 3000 mg/kg. In data set [1], the ED50 was 16 mg/kg; the “analgesic effects of the peripheral type (Siegmund test), compared with amidopyrine and glafenine” value was “generally much more active”. Further, in data set [2], the ED40 turned out to be 65 mg/kg.
For the compound `O=C(OCCN1CCN(c2cccc(OC(F)(F)F)c2)CC1)c1ccccc1Nc1ccnc2cc(Cl)ccc12` [Compound 73-030, 2-(4'-m-Trifluoromethoxyphenyl-piperazino)-ethyl 2-(7'-chloro-4'-quinolyl-amino)-benzoate], the LD50 in “in vivo” was > 4000 mg/kg. For the same compound, the ED50 in data set [1] came to 100 mg/kg. For the same compound, the ED40 in data set [2] turned out to be 50 mg/kg.
Turning to `O=C(OCCN1CCN(c2cccc(Cl)c2)CC1)c1ccccc1Nc1ccnc2c(C(F)(F)F)cccc12` [SLB 180, 2-(4'-m-Chlorophenyl-piperazino)-ethyl 2-(8'-trifluoromethyl-4'-quinolyl-amino)-benzoate], the LD50 in “in vivo” was > 3000 mg/kg. Further, in data set [1], the ED50 came to 12 mg/kg; the “analgesic effects of the peripheral type (Siegmund test), compared with amidopyrine and glafenine” value is recorded as “generally much more active”. Also, the ED40 in data set [2] is > 100 mg/kg.
The compound `Cc1c(N(C)C)c(=O)n(-c2ccccc2)n1C` [Amidopyrine, reference compound] registered an LD50 in “in vivo” (Acute toxicity LD50 (50% lethal dose), mice, oral administration) of 850 mg/kg. Also, in data set [1], the ED50 came out at 50 mg/kg. The ED40 in data set [2] is 80 mg/kg.
Regarding `O=C(OCCN1CCN(c2cccc(SC(F)(F)F)c2)CC1)c1ccccc1Nc1ccnc2cc(C(F)(F)F)ccc12` [Compound 73-048, 2-(4'-m-Trifluoromethylthiophenyl-piperazino)-ethyl 2-(7'-trifluoromethyl-4'-quinolyl-amino)-benzoate], the LD50 in the data set “in vivo” came out at 4000 mg/kg. For the same compound, in data set [1], the ED50 was 6 mg/kg; the “analgesic effects of the peripheral type (Siegmund test), compared with amidopyrine and glafenine” value is “generally much more active”. For the same compound, the ED40 in data set [2] was 30 mg/kg.
For `Cc1c(Cl)cccc1N1CCN(CCOC(=O)c2ccccc2Nc2ccnc3cc(Cl)ccc23)CC1` [Compound 73-046, 2-[4'-(3"-Chloro-2"-methyl-phenyl)-piperazino]-ethyl 2-(7'-chloro-4'-quinolyl-amino)-benzoate] the same measures were > 2000 mg/kg, 13 mg/kg, “generally much more active” and 30 mg/kg.

The values above are taken from patent US3935229A, “Esters of 2-[(4-quinolyl)amino]-benzoic acids” (Synthelabo, priority 1973, dated 1976).
